Test results: PMC7556346 (Cell chemical biology, 2020)
Entries after “also recorded” stand apart in the source; their conditions may differ.

Legend:
CTD110.6 antibody = CTD110.6 antibody binding on glycopeptide microarrays
[1] = system: Wheat Germ Agglutinin (WGA); assay: Lectin binding on microarray; settings: control glycans on the GP1 array; TSM binding buffer pH 7.4, 1 hr, room temperature

## CC(=O)N[C@H]1C(O)O[C@H](CO)[C@H](O)[C@@H]1O (stereo partly drawn) [GalNAc]
CTD110.6 antibody; GP2 array printed at 100 μM, 20 mM GalNAc
  effect of free GalNAc on CTD110.6 non-specific binding (hapten): specificity can be restored; also recorded: can be prevented

## CC(=O)N[C@H]1C(O)O[C@H](CO)[C@@H](O)[C@@H]1O (stereo partly drawn) [GlcNAc]
CTD110.6 antibody; GP1 array, 20 mM GlcNAc
  effect of free GlcNAc on CTD110.6 binding (hapten competition): completely abolished

## chitin
[1]
  binding of WGA to control glycans: exhibited lectin binding with WGA
